Experiments:
[1] = tested on: A2780 cells; test: Fluorescence microscopy cell binding of GnRHa-ICG / ICG; format: cell-based, human; conditions: 60 min, 37°C, confocal microscopy
Procedure: (§1) The cells were placed in an 8-well chamber slide (Ibidi) and grown to ~60% confluence. A2780, CAOV-3, ES-2, and HeyA8 cells were incubated with 100 μmol/L GnRHa-FITC, and A2780, OSE, and H1299 cells were incubated with 20 μmol/L GnRHa-ICG or ICG (Sigma-Aldrich) for 60 min at 37°C. After incubation, the cells were washed with PBS, fixed in 4% paraformaldehyde, labeled with WGA Alexa Fluor 594 conjugate or WGA Alexa Fluor 488 conjugate (Invitrogen), and mounted with DAPI. These samples were analyzed using TCS SP5 confocal microscopy (Leica). For quantitative analysis, the mean fluorescence intensity was calculated using ImageJ software (version 1.50 g).

[2] = tested on: OSE cells; test: as above; format: cell-based, human; conditions: 60 min, 37°C, confocal microscopy
Procedure: as §1

[3] = tested on: A2780 peritoneal metastases of ovarian cancer; format: in vivo, Balb/c nude mice
From the text: The xenograft model for metastatic ovarian cancer was previously described ([18]). Female Balb/c nude mice (5–6 weeks old) were intraperitoneally injected with 1 × 10^7 A2780 cells. Tumors were allowed to grow for 2–3 weeks. The Institutional Animal Care and Use Committee of Fudan University approved all protocols presented in these studies.
For ex vivo GnRHa-ICG and ICG (0, 1, 10, and 20 μmol/L) imaging, fluorescence signals were taken using the IVIS Lumina K imaging system (PerkinElmer) and the clinically used Fluorescence Navigation system (the FloNavi, Optomedic Technique Inc., Guangdong, China). For intraperitoneal metastasis imaging, 0.72 μmol/kg of GnRHa-ICG or ICG was injected intraperitoneally in mice. Mice were sacrificed at the indicated times (n = 3 per group), and the abdominal cavities were exposed. Fluorescence images were obtained using the IVIS Lumina K imaging system (PerkinElmer) with a 780 nm excitation filter and an 845 nm emission filter. For ex vivo imaging, xenografts and organs were immediately dissected and analyzed after sacrifice.
Fluorescence signals were quantified as the average radiant efficiency ([p/s/cm^2/sr]/[μW/cm^2]) using the Living Image software. The fluorescence intensity was measured by drawing a region of interest (ROI) around the area. The tumor-to-background ratio (TBR) was calculated as the average fluorescence intensity of the tumor divided by that of the skeletal muscle or intestine.

[4] = tested on: A2780 and OSE cells (GnRHR-positive); test: Flow cytometry blocking experiment with unlabeled GnRHa peptide; format: cell-based, human; conditions: pretreated with 100 μmol/L GnRHa peptide 10 min, then 2 μmol/L GnRHa-ICG 30 min, 37°C, triplicate
Procedure: A2780 and OSE cells were placed in 6-well plates, grown to ~70% confluence, and then incubated with GnRHa-FITC (20 μmol/L) or GnRHa-ICG/ICG (10 μmol/L) for 30 min at 37°C. For the blocking experiments, cells were pretreated with 100 μmol/L GnRHa peptide for 10 min and then incubated with 2 μmol/L GnRHa-ICG for 30 min at 37°C. Samples were measured on a CytoFLEX flow cytometer (Beckman Coulter) or a FACSAria flow cytometer (BD Biosciences). All samples were examined in triplicate. Data were analyzed using FlowJo software (version X 10.0.7).

[5] = tested on: A2780 cells; test: Cell viability assay (Cell Counting Kit-8); format: cell-based, human; conditions: 0, 1, 10, 100 μmol/L, 48 h exposure, CCK-8, 4 sub-wells
Procedure: A2780 cells were seeded in 96-well plate and grown to ~40% confluence. Cells were incubated with GnRHa-ICG at different concentrations: 0, 1, 10, and 100 μmol/L. Each group had 4 sub-wells. After exposure for 48 h, cell viabilities were assessed by Cell Counting Kit-8 assay (Dojindo). The absorbance at 450 nm (reference wavelength: 630 nm) was measured with a microplate reader.

[6] = tested on: Balb/c nude mice; test: In vivo toxicity test; conditions: 1.5 mg/kg intraperitoneal, n = 4
Procedure: The toxicity of GnRHa-ICG was determined in Balb/c nude mice (n = 4). Two groups received intraperitoneal injections of 1.5 mg/kg GnRHa-ICG and were followed for 2 and 96 h. The control group received vehicle alone. Blood draws were done to assess alanine transaminase (ALT), aspartate transaminase (AST), blood urea nitrogen (BUN), creatinine (CREA), white blood cells (WBC), and red blood cells (RBC). Tissues of the heart, lung, liver, spleen and kidney were harvested for HE staining.

[7] = 2 h post administration, 0.72 μmol/kg intraperitoneal, IVIS Lumina K, ex 780/em 845 nm, mean ± SD, n = 3 per group
[8] = 20 μmol/L, mean fluorescence intensity by ImageJ

| Molecule | fluorescence signal, times lower than with incubation of GnRHa-ICG ([1]; 20 μM each) | fluorescence signal, times lower than with incubation of GnRHa-ICG ([2]; 20 μM each) | tumor-to-intestine ratio [3, 7] | tumor-to-muscle ratio [3, 7] | course of tumor fluorescence intensity ([3]; mouse, in vivo) | fluorescence in control (normal, non-tumor) mice ([3]; mouse, in vivo, ip) | fluorescence intensity, fold higher than in H1299 cells (GnRHR-negative) [1, 8] | fluorescence intensity, fold higher than in H1299 cells (GnRHR-negative) [2, 8] | effect of competition with unlabeled GnRHa on fluorescence intensity [4] | cell viability after exposure (tumorigenic potential) [5] | course of tumor-to-background ratio (TBR) over time ([3]; between 2 and 48 h, intraperitoneal) | ex vivo imaging of the brain (binding to hypothalamic GnRHR) ([3]; mouse, in vivo) | fluorescence in benign retroperitoneal lymph nodes versus tumor ([3]; mouse, in vivo) | time at which fluorescence signal of A2780 xenografts peaked in intensity ([3]; mouse, in vivo, ip) | time for which tumor fluorescence intensities were maintained ([3]; mouse, in vivo, ip) | time of highest fluorescence density in the liver ([3]; mouse, in vivo, ip) | ALT, AST, CREA, WBC and RBC, control versus test groups ([6]; 2 and 96 h) | BUN ([6]; 96 h after injection) | histological observation of main organs (heart, lung, liver, spleen, kidney; HE staining) [6] |
| --- | --- | --- | --- | --- | --- | --- | --- | --- | --- | --- | --- | --- | --- | --- | --- | --- | --- | --- | --- |
| CC1(C)C(/C=C/C=C/C=C/C=C2\N(CCCCS(=O)(=O)O)c3ccc4ccccc4c3C2(C)C)=[N+](CCCCS(=O)(=O)[O-])c2ccc3ccccc3c21 [ICG, Indocyanine green, reference compound] | 2.61 times | 2.25 times | 0.57 ± 0.06 | 4.60 ± 0.50 | decreased quickly within 48 h | high fluorescence signals |  |  |  |  |  |  |  |  |  |  |  |  |  |
| D-2-Nal-D-4-Cl-Phe-D-3-Pal-Ser-Tyr-D-Cit-Leu-Arg-Pro-D-Ala-NH2 [GnRHa-ICG] |  |  |  |  |  | did not show fluorescence signals | 1.56 fold | 1.34 fold | partial reduction in fluorescence intensity | does not increase cell viability | stable | did not show fluorescence signals | fewer fluorescence signals | 2 h | up to 48 h | 24 h | no significant difference | slight decrease | did not present any obvious damage |

Source: article PMC7059204, “Gonadotropin-Releasing Hormone Receptor-Targeted Near-Infrared Fluorescence Probe for Specific Recognition and Localization of Peritoneal Metastases of Ovarian Cancer” (Frontiers in Oncology, 2020)
